In patent publication US20160060288A1, “Ester derivatives of 7-alpha-[9-(4,4,5,5,5-pentafluoropentylsulfinyl)nonyl)-estra-1,3,5(10)-triene-3,17beta-diol having anticancer activity and preparation method thereof” (XI'ANLIBANG PHARMACEUTICAL TECHNOLOGY CO., LTD., priority 2013, published 2016):
≈ marks a conversion by molar mass, not a printed value.

Tests used:
[1] = physchem; conditions: thermodynamic from solid
Excerpt: (§1) Fulvestrant and ester derivatives of fulvestrant were accurately weighed to an appropriate amount respectively. Their solubilities (in mg/mL) in different oils and solvents were compared according to General Notice in Section 2 of Chinese Pharmacopoeia (2010).

[2] = system: human breast cancer MCF-7; assay: Growth inhibition of human breast cancer MCF-7 xenografted in nude mice; assay type: in vivo, BALB/c female nude mice; conditions: oiling agent, 100 mg/kg s.c. once, 28 days after administration; for Tumor weight: X ± SD; for Tumor inhibition rate: from tumor weight vs control
Excerpt: Test drugs: fulvestrant, Compounds II and X are dispersed in oil and sterilized to be prepared as oiling agents respectively.

[3] = cited from earlier work
[4] = Body weight of MCF-7 xenografted nude mice; conditions: oiling agent, 100 mg/kg s.c. once, 28 days after administration, X ± SD
Description: Experimental animals and grouping thereof, source, germline and strain: BALB/c female nude mice, provided by Laboratory Animal Research Center of Academy of Military Medical Sciences of China (Laboratory animal production license: SCXK (Military) 2007-004), day-old: 35-40 days; body weight: 18-24 g.
Establishment of model and tumor measuring method: human breast cancer MCF-7 cell lines in logarithmic growth phase were prepared into a cell suspension of 5×10^8/mL under sterile condition, with 0.1 mL of which being inoculated to nude mice at their right armpits subcutaneously. Xenografted tumors of nude mice were measured for diameter with vernier caliper, and animals were randomly grouped when the tumors grew to 100-300 mm^3. The administration volume to each of the mice was 0.2 mL/20 g by subcutaneous injection at head and neck region. 28 days after administration, the mice were sacrificed and the tumors were stripped by surgery and weighed.

[5] = Solubility experiments of fulvestrant and ester derivatives in different oils and solvents; conditions: thermodynamic from solid
Excerpt: as §1

[6] = oil or lipid, Solubility in soybean oil
[7] = organic solvent or mixture, Solubility in propylene glycol

Compound: CCCCCCCCCCCCCCCC(=O)OC1CCC2C3C(CCCCCCCCC[S+]([O-])CCCC(F)(F)C(F)(F)F)Cc4cc(O)ccc4C3CCC12C (centres unmarked) [Compound II]
- solubility ([1]; oil or lipid, Solubility in castor oil): > 100000 µg/mL
- solubility ([1]; oil or lipid, Solubility in medium-chain oil): > 10000 µg/mL
- solubility [1, 6]: > 100000 µg/mL
- solubility ([1]; organic solvent or mixture, Solubility in PEG 400): 2900 µg/mL (≈ 3.43 mM)
- solubility [1, 7]: 10200 µg/mL (≈ 12.1 mM)
- Tumor weight [2]: 0.426 ± 0.306 g
- Tumor inhibition rate [2]: 64.90%

Compound: CC(CCC(C(=O)OC1CCC2C3C(CCCCCCCCC[S+]([O-])CCCC(F)(F)C(F)(F)F)Cc4cc(O)ccc4C3CCC12C)C(C)CC(C)(C)C)CC(C)(C)C (centres unmarked) [Compound IV]
- solubility [1, 6]: 28000 µg/mL (≈ 32.1 mM)
- solubility [1, 7]: 7100 µg/mL (≈ 8.13 mM)

Compound: CCCCCCCCCCC(=O)OC1CCC2C3C(CCCCCCCCC[S+]([O-])CCCC(F)(F)C(F)(F)F)Cc4cc(O)ccc4C3CCC12C (centres unmarked) [Compound I]
- solubility [1, 6]: 255000 µg/mL (≈ 329 mM)
- solubility [1, 7]: 2900 µg/mL (≈ 3.74 mM)

Compound: CCCCCCCC/C=C/C(=O)OC1CCC2C3C(CCCCCCCCC[S+]([O-])CCCC(F)(F)C(F)(F)F)Cc4cc(O)ccc4C3CCC12C (centres unmarked) [Compound V]
- solubility [1, 6]: 122000 µg/mL (≈ 158 mM)
- solubility [1, 7]: 12200 µg/mL (≈ 15.8 mM)

Compound: CCCCCCCC/C=C/C(=O)OC1CCC2C3C(CCCCCCCCC[S+]([O-])CCCC(F)(F)C(F)(F)F)Cc4cc(OC(=O)CCC)ccc4C3CCC12C (centres unmarked) [Compound X]
- Tumor weight [2]: 0.402 ± 0.711 g
- Tumor inhibition rate [2]: 65.93%

Compound: CC12CCC3c4ccc(O)cc4CC(CCCCCCCCC[S+]([O-])CCCC(F)(F)C(F)(F)F)C3C1CCC2O (stereo not drawn) [Fulvestrant, 7-α-[9-(4,4,5,5,5-pentafluoropentylsulfinyl)nonyl]-estra-1,3,5(10)-triene-3,17β-diol]
- Solubility in Migloyl 810 ([3]; Migloyl 810, 25° C.): 3060 µg/mL (≈ 5.04 mM)
- Solubility in Migloyl 812 ([3]; Migloyl 812, 25° C.): 2720 µg/mL (≈ 4.48 mM)
- Solubility in Span 85 ([3]; Span 85, 25° C.): 3790 µg/mL (≈ 6.25 mM)
- Solubility in benzyl alcohol ([3]; benzyl alcohol, 25° C.): > 200000 µg/mL
- Solubility in benzyl benzoate ([3]; benzyl benzoate, 25° C.): 6150 µg/mL (≈ 10.1 mM)
- Solubility in castor oil ([3]; castor oil, 25° C.): 20000 µg/mL (≈ 33 mM)
- Solubility in castor oil (reported value) ([3]; castor oil, * denotes reported value): 20* mg/mL
- Solubility in ethanol ([3]; ethanol, 25° C.): > 200000 µg/mL
- Solubility in ethyl oleate ([3]; ethyl oleate, 25° C.): 1250 µg/mL (≈ 2.06 mM)
- Solubility in isopropyl myristate ([3]; isopropyl myristate, 25° C.): 800 µg/mL (≈ 1.32 mM)
- Solubility in peanut oil ([3]; peanut oil, 25° C.): 450 µg/mL (≈ 0.742 mM)
- Solubility in sesame oil ([3]; sesame oil, 25° C.): 580 µg/mL (≈ 0.956 mM)
- Solubility in water ([3]; water, 25° C.): 1 µg/mL (≈ 0.00165 mM)
- Water solubility ([3]; water): about 10 ng/mL
- Final body weight [4]: 15.800 ± 1.166 g
- solubility ([5]; PEG 400, organic solvent or mixture, Solubility in PEG 400, PEG 400): 6900 µg/mL (≈ 11.4 mM)
- solubility ([5]; propylene glycol, organic solvent or mixture, Solubility in propylene glycol): 10200 µg/mL (≈ 16.8 mM)
- solubility ([5]; soybean oil, oil or lipid, Solubility in soybean oil): 5000 µg/mL (≈ 8.24 mM)
- Tumor weight [2]: 0.392 ± 0.443 g
- Tumor inhibition rate [2]: 66.78%
